Earlier results, collected in publication PMC3702004, “Comparison of Intake and Systemic Relative Effect Potencies of Dioxin-like Compounds in Female Mice after a Single Oral Dose” (Environmental Health Perspectives, 2013).

Settings: CYP1A2 knockout mice; ref Diliberto et al. 1997; cited from earlier work

For `Clc1cc2c(cc1Cl)Oc1cc(Cl)c(Cl)cc1O2` [TCDD, 2,3,7,8-tetrachlorodibenzodioxin, reference compound], which “Liver:adipose ratio” value is on record?
The value was less than 0.3.
